In PMC12280126, “Potent β-lactam-based tyrosyl-DNA phosphodiesterase 1 inhibitors identified by a virtual screen” (Scientific Reports, 2025):
“And” between values parts separate entries of the source, which are not always exact repeats. Identical values can stand only once. Counter-ions that a name gives are not always drawn. Like-named read-outs stand apart in the source and are kept apart here.

Key:
recombinant TDP1 = molecular target: T1, recombinant TDP1 (Homo sapiens, UniProt Q9NUW8); assay: in vitro gel-based fluorescence TDP1 catalytic assay; type: biochemical
T1 construct: incubated with 40 pM full-length recombinant TDP1 or TDP1 (148–608)
Experimental: We subjected select virtual screen hits to evaluation of TDP1 inhibitory potencies using in vitro gel-based fluorescence TDP1 catalytic assays (Fig. 2). […] To further explore this class of compounds, we purchased from TargetMol a library of approximately 90 β-lactams as 10 mM solutions in DMSO. […] We examined TDP1 inhibitory potencies of the compounds using the in vitro gel-based fluorescence assays as previously described[21]–[24]. Briefly, a 5’-Cy5-labeled DNA substrate (N14Y, 5’-Cy5-[…]-pY-3’, 1 nM) was incubated in TDP1 reaction buffer with recombinant TDP1 or truncated TDP1(148–608) (40 pM) in the absence or presence of inhibitors for 15 min at room temperature. […] The TDP1 inhibition IC50 values were calculated based on gel images of the cleavage product (N14P, 5’-Cy5-[…]-p-3’) (Fig. 3A and Table S2).
(§1) The inhibition of TDP1 and TDP2 were conducted according to gel-based methods as previously described[21]–[24],[45]. Briefly, 1 nM of the DNA substrate (N14Y, 5´Cy5-[…]-pY-3´) was incubated with 40 pM full-length recombinant TDP1 or TDP1 (148–608) in the absence or presence of inhibitors for 15 min at room temperature in TDP1 reaction buffer (50 mM Tris-HCl, pH 7.5, 80 mM KCl, 2 mM EDTA, 1 mM DTT, 40 µg/mL BSA and 0.01% Tween 20). The inhibition of TDP2 was also conducted by using similar conditions. […] The reactions of both TDP1 and TDP2 were stopped by adding an equal volume of gel loading buffer (99.5% (v/v) formamide, 5 mM EDTA). The samples were then subjected to a 20% denaturing PAGE gel followed by gel scanning using a Typhoon FLA 9500 scanner (GE Healthcare). The IC50 values of the TDP1 inhibitors were calculated by comparing the percentage of the cleavage product (N14P, 5´Cy5-[…]-p-3´) produced to that in the DMSO control. The IC50 values of the TDP2 inhibitors were calculated by comparing the percentage of the cleavage product (PN18, 5’-p-[…]-Cy5-3’) produced to that in the DMSO control.

recombinant TDP2 = molecular target: T2, recombinant TDP2 (Homo sapiens, UniProt O95551); assay: in vitro gel-based fluorescence TDP2 assay (counterscreen); type: biochemical; settings: for IC50: 15 min, RT
T2 sequence (O95551 1-362): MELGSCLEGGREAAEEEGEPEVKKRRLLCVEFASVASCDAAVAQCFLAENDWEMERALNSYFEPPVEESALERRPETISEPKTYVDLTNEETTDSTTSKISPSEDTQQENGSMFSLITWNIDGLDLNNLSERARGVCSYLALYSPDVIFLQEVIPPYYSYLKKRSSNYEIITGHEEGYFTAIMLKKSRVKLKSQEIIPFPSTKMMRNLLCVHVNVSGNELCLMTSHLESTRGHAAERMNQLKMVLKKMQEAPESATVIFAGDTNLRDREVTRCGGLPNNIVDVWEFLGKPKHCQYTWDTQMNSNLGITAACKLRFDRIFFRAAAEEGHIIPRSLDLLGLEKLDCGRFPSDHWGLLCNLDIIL
Experimental: as §1

TDP1(148–608) [1] = molecular target: T3, TDP1(148–608) (Homo sapiens, UniProt Q9NUW8); assay: Intact mass and PTM-mapping mass spectrometry for covalent modification; settings: enzyme-to-compound ratios 1:125 to 1:1000
T3 construct: SPR experiments were recorded for the truncated TDP1(148–608) and the β-lactam compound
Experimental: We also digested the TDP1 following incubation with the compounds.

[2] = system: human colon cancer cell line HCT116; assay: Cell viability, synergistic effect with camptothecin (CPT); type: cell-based
Experimental: We undertook further assays to determine whether the β-lactams could act in cells as TDP1 inhibitors.
The synergistic effects of the TDP1 inhibitors with CPT were tested in human colon cancer cell line HCT116 based on cell viability[22],[23]. Cells were first seeded in a 384-well black-clear plate until 30% confluency and then incubated with a serial dilution of CPT at the range of 0-100 nM (0, 12.5, 25, 50, 100 nM) in the present or the absence of desired concentrations of TDP1 inhibitors for 72 h at 37 °C. DMSO was used as control. Viable cell numbers were counted from the brightfield images taken by Biotek Cytation 5.

TDP1(148–608) [3] = molecular target: T3, TDP1(148–608); assay: gel-based fluorescence assay with truncated TDP1 compared with full-length TDP1; type: biochemical
Experimental: as §1

TDP1(148–608) [4] = molecular target: T3, TDP1(148–608); assay: Surface plasmon resonance (SPR) binding analysis
Source text: A central mechanism of action of β-lactam antibiotics involves covalent modification of serine residues in PBPs. However, β-lactams are also known to covalently modify proteins more broadly[35],[42]. Mass spectroscopy has proven to be invaluable in characterizing protein modification by β-lactams[43],[44]. […] We evaluated cephalosporin C (11) in SPR studies. For SPR, we immobilized the TDP1(148–608) on an SPR chip and measured the binding of compounds as a function of concentration.
SPR experiments were recorded for the truncated TDP1(148–608) and the β-lactam compound with Biacore T200 system (GE Healthcare). Using the amine coupling kit (Cytiva), 11,000 RU of TDP1 was covalently immobilized on a CM5 chip (Cytiva) via amine coupling. The β-lactam compounds were prepared in HBS-P buffer (Cytiva). Experiments in high-performance mode was carried out using five injections (30 µL/min) of increasing concentrations of the β-lactam (50 nM – 25 µM) passed over the sensor chip for 180 s, followed by a 1200 s dissociation. Buffer and reference signals were subtracted and binding affinities (Kd) were determined using the Biacore T200 evaluation software (GE Healthcare).

[5] = 40 pM recombinant TDP1, 1 nM N14Y DNA substrate, 15 min, room temperature, read-out: TDP1 IC50
[6] = 40 pM recombinant TDP2, 1 nM YN18 DNA substrate, read-out: TDP2 IC50
[7] = TDP1 IC50, 40 pM recombinant TDP1, 1 nM N14Y DNA substrate, 15 min, room temperature
[8] = TDP2 IC50, 40 pM recombinant TDP2, 1 nM YN18 DNA substrate

T1 sequence (Q9NUW8 whole entry): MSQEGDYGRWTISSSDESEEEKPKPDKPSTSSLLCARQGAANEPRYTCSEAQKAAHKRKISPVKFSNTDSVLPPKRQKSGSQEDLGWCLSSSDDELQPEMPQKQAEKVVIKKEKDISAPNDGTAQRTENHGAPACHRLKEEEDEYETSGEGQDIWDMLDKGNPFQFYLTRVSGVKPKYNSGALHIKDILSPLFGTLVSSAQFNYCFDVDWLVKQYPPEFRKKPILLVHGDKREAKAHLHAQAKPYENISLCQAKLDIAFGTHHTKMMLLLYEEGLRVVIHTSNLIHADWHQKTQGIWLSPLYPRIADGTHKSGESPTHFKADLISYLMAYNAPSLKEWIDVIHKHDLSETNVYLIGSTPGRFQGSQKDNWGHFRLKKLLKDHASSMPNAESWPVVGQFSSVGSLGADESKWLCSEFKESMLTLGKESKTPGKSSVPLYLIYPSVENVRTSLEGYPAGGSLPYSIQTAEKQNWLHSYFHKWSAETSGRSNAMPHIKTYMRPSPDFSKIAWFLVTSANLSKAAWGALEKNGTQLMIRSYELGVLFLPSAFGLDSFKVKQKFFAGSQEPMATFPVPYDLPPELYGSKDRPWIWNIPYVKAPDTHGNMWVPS
T3 sequence (Q9NUW8 148-608): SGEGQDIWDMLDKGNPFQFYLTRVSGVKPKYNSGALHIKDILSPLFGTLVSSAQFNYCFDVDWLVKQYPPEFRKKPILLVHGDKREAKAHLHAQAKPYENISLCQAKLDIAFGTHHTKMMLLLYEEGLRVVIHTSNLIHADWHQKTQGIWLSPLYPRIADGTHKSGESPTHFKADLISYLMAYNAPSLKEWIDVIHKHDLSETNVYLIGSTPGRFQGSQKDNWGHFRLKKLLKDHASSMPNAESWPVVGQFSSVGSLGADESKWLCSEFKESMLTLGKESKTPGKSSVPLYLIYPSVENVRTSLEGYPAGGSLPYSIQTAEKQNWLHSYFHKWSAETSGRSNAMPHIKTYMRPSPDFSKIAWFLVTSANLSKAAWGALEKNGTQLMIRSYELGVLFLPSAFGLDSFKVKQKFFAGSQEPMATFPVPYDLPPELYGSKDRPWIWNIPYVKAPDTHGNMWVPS

IC50 (recombinant TDP1; [5]) | IC50 (recombinant TDP2; [6]) [µM] | Compound | also measured
27.5 µM and < 100 µM and 27 µM | 52.6 | O=C1[C@H](CC[C@H](O)c2ccc(F)cc2)[C@@H](c2ccc(O)cc2)N1c1ccc(F)cc1 [LE9, Ezetimibe] | –
– | 35.2 | CC(=O)OCC1=C(C(=O)O)N2C(=O)[C@@H](NC(=O)Cc3cccs3)[C@H]2SC1 [LG7, Cephalothin sodium] | –
73.8 µM and < 100 µM and 74 µM | 45.5 | CC1(Cn2ccnn2)C(C(=O)O)N2C(=O)CC2S1(=O)=O (stereo not drawn) [LF8, Tazobactam acid] | –
4 µM and < 100 µM | 69.3 ± 6 | C=CC1=C(C(=O)O)N2C(=O)[C@@H](NC(=O)/C(=N\OCC(=O)O)c3csc(N)n3)[C@H]2SC1 [LH5, Cefixime] | –
5.8 µM and < 100 µM | 18.9 ± 2.2 | CC(C)(O/N=C(\C(=O)N[C@@H]1C(=O)N2C(C(=O)[O-])=C(C[n+]3ccccc3)CS[C@H]12)c1csc(N)n1)C(=O)O [LF6, Ceftazidime] | –
> 1000 µM | – | N[C@@H](C(=O)N[C@@H]1C(=O)N2C(C(=O)O)=C(Cl)CS[C@H]12)c1ccccc1 [LE11, Cefaclor monohydrate] | –
> 1000 µM | – | CN(C)CCn1nnnc1SCC1=C(C(=O)O)N2C(=O)[C@@H](NC(=O)Cc3csc(N)n3)[C@H]2SC1 [LE8, Cefotiam hydrochloride] | –
> 1000 µM | – | CC1(C)S[C@@H]2[C@H](/N=C/N3CCCCCC3)C(=O)N2[C@H]1C(=O)O [LE6, Mecillinam] | –
> 1000 µM | – | CC1=C(C(=O)O)N2C(=O)[C@@H](NC(=O)[C@H](N)c3ccccc3)[C@H]2SC1 [LH11, Cephalexin] | –

The remaining lines, values behind:

Compound | IC50 (recombinant TDP1; [5]) | IC50 (recombinant TDP2; [6]) [µM] | also measured
CON=C(C(=O)NC1C(=O)N2C(C(=O)O)=C(CSC(=O)c3ccco3)CSC12)c1csc(N)n1 (stereo not drawn) [LC2, Ceftiofur hydrochloride] | > 1000 µM | 80.9 ± 13.2 | –
CC(=O)OCC1=C(C(=O)O)N2C(=O)[C@@H](NC(=O)CCC[C@@H](N)C(=O)O)[C@H]2SC1 [LB2, Cephalosporin C zinc salt] | – | – | IC50 (recombinant TDP1; [7]): 5.54 µM and < 100 µM and 5.5 µM; IC50 (recombinant TDP2; [8]): 38.3 µM; greater potency against TDP1 than against TDP2 (recombinant TDP2; ratio of gel-based IC50 values): approximately 7 fold
CO/N=C(\C(=O)N[C@@H]1C(=O)N2C(C(=O)O)=C(COC(C)=O)CS[C@H]12)c1csc(N)n1 [LA9, Cefotaxime] | – | 81.7 ± 5.2 | –
CO/N=C(\C(=O)N[C@@H]1C(=O)N2C(C(=O)O)=CCS[C@H]12)c1csc(N)n1 [LD9, Ceftizoxime] | 10.8 µM and < 100 µM and 11 µM | 37.6 ± 7.4 | –
CC1(C)S[C@@H]2[C@H](NC(=O)Cc3ccccc3)C(=O)N2[C@H]1C(=O)O [LD8, Procaine penicillin G] | 84.8 µM and < 100 µM and 85 µM | 77.4 | –
CC1(C)S[C@@H]2[C@H](NC(=O)[C@H](N)c3ccccc3)C(=O)N2[C@H]1C(=O)O [LB9, Ampicillin sodium] | 10.3 µM and < 100 µM and 10 µM | 2.49 | greater potency against TDP2 than TDP1 (recombinant TDP2; ratio of gel-based IC50 values): 4 fold
CC1(C)[C@H](C(=O)O)N2C(=O)C[C@H]2S1(=O)=O [LB6, Sulbactam sodium] | 84.5 µM and < 100 µM and 85 µM | 201 | –
CC1(C)S[C@@H]2[C@H](NC(=O)[C@H](N)c3ccccc3)C(=O)N2[C@H]1C(=O)O [LD1, Ampicillin Trihydrate] | 77.3 µM and < 100 µM and 77 µM | > 1000 | –
CC1(C)S[C@@H]2[C@H](NC(=O)Cc3ccccc3)C(=O)N2[C@H]1C(=O)O [LC5, Benzylpenicillin potassium] | > 1000 µM | 26.1 ± 3.35 | –
Cc1onc(-c2c(F)cccc2Cl)c1C(=O)N[C@@H]1C(=O)N2[C@@H]1SC(C)(C)[C@@H]2C(=O)O [LC11, Flucloxacillin sodium] | – | 36 ± 1.35 | –
CO/N=C(\C(=O)N[C@@H]1C(=O)N2C(C(=O)O)=C(COC(C)=O)CS[C@H]12)c1csc(N)n1 [LA1, Cefotaxime sodium] | > 1000 µM | – | –
C[C@@H](O)[C@H]1C(=O)N2C(C(=O)O)=C([C@H]3CCCO3)S[C@H]12 [LC7, Faropenem sodium] | > 1000 µM | – | –
CCN1CCN(C(=O)N[C@@H](C(=O)N[C@@H]2C(=O)N3[C@@H]2SC(C)(C)[C@@H]3C(=O)O)c2ccccc2)C(=O)C1=O [LA2, piperacillin] | 28 µM and < 100 µM | 224 ± 26 | –
NCc1ccccc1CC(=O)N[C@@H]1C(=O)N2C(C(=O)O)=C(CSc3nnnn3CC(=O)O)CS[C@H]12 [LC10, Ceforanide] | 378 µM | – | –
CC1(C)[C@H](C(=O)O)N2C(=O)C[C@H]2S1(=O)=O [LE7, Sulbactam] | – | – | IC50 (recombinant TDP1; read-out: TDP1 IC50): 595 µM
C[C@@H](O)[C@H]1C(=O)N2C(C(=O)O)=C(S[C@@H]3CN[C@H](CNS(N)(=O)=O)C3)[C@H](C)[C@H]12 [LE5, Doripenem] | 148 µM | – | –
CC1(C)S[C@@H]2[C@H](NC(=O)[C@H](N)c3ccc(O)cc3)C(=O)N2[C@H]1C(=O)O [LB11, Amoxicillin Sodium] | – | 99 ± 2.15 | –
C[C@@H](O)[C@H]1C(=O)N2C(C(=O)O)=C(S[C@@H]3CN[C@H](C(=O)Nc4cccc(C(=O)O)c4)C3)[C@H](C)[C@H]12 [LD5, Ertapenem sodium] | > 1000 µM | – | –
CC(=O)OCC1=C(C(=O)O)N2C(=O)[C@@H](NC(=O)CCC[C@@H](N)C(=O)O)[C@H]2SC1 [compound 11, cephalosporin C] | – | – | covalent modification of TDP1 (intact mass analysis) (TDP1(148–608) [1]): not able to detect covalent modification of TDP1; effect in combination with TOP1 inhibitor CPT on cell viability ([2]; HCT116, 25 µM, CPT 0-100 nM, 72 h): acted synergistically; cytotoxicity on its own ([2]; without CPT): no cytotoxicity; IC50 (recombinant TDP1; [7]): 4.43 µM and 4.4 µM; loss of inhibitory potencies with only the C-terminal residues TDP1(148–608) compared with full-length TDP1 (TDP1(148–608) [3]): more than 50 fold; IC50 (recombinant TDP2; [8]): > 100 µM; binding mode from SPR (compound eluted off the chip without impacting binding capacity) (TDP1(148–608) [4]): more likely bound non-covalently; Kd (TDP1(148–608) [4]; TDP1(148–608) immobilized on CM5 chip, 50 nM – 25 µM compound): 11.6 µM
COc1cccc2c1cc1c3c(cc4c(c32)OCO4)C(=O)N1 [LE2, Aristololactam I] | 80.6 µM and 81 µM | 70.1 | IC50 (recombinant TDP1; [7]): < 100 µM
CO/N=C(\C(=O)N[C@@H]1C(=O)N2C(C(=O)[O-])=C(C[n+]3cccc4c3CCC4)CS[C@H]12)c1csc(N)n1 [LD3, Cefpirome sulfate] | > 1000 µM | – | –
Cc1onc(-c2ccccc2Cl)c1C(=O)N[C@@H]1C(=O)N2[C@@H]1SC(C)(C)[C@@H]2C(=O)O [LH2, Cloxacillin sodium monohydrate] | > 1000 µM | – | –
CC(=O)OCC1=C(C(=O)O)N2C(=O)[C@@H](NC(=O)CCC[C@@H](N)C(=O)O)[C@H]2SC1 [11-Zn, Cephalosporin C Zinc salt] | – | – | IC50 (recombinant TDP1; read-out: TDP1 IC50, 40 pM recombinant TDP1, 1 nM N14Y DNA substrate, 15 min, room temperature): 5.3 µM; IC50 (recombinant TDP2; read-out: TDP2 IC50, 40 pM recombinant TDP2, 1 nM YN18 DNA substrate): 89.1 µM
